Reference: PubChem BioAssay (NCI)
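A five-concentration, 48-hour dose response in 96-well plates underlies each endpoint, interpolated linearly between surrounding concentrations. The concentration for full growth arrest is given as TGI.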

How the values were obtained:
Experiment in all cases: inhibition of tumour cell growth, NCI panel, 48 h
HL-60(TB) leukemia = system: HL-60(TB) leukemia
CCRF-CEM leukemia = system: CCRF-CEM leukemia
COLO 205 colon = system: COLO 205 colon
NCI-H226 lung = system: NCI-H226 lung
RXF 393 renal = system: RXF 393 renal
SNB-19 CNS = system: SNB-19 CNS
NCI/ADR-RES ovarian = system: NCI/ADR-RES ovarian
PC-3 prostate = system: PC-3 prostate
HCT-15 colon = system: HCT-15 colon
HT29 colon = system: HT29 colon
DU-145 prostate = system: DU-145 prostate
U251 CNS = system: U251 CNS
SR leukemia = system: SR leukemia

CC(=O)O[C@H]1C#C/C=C\C#CC[C@@H]2C(=O)N[C@@H]12
TGI (HL-60(TB) leukemia): 33.5 µM
TGI (CCRF-CEM leukemia): > 100 µM
TGI (COLO 205 colon): > 100 µM
TGI (NCI-H226 lung): 90.8 µM
TGI (RXF 393 renal): 73.3 µM
TGI (SNB-19 CNS): > 100 µM
TGI (NCI/ADR-RES ovarian): > 75.9 µM
TGI (PC-3 prostate): > 100 µM
TGI (HCT-15 colon): > 82 µM
TGI (HT29 colon): > 100 µM
TGI (DU-145 prostate): 62 µM
TGI (U251 CNS): > 100 µM

Cc1cn(C2CC(n3cc(Cn4cc(Br)c(=O)[nH]c4=O)nn3)C(CO)O2)c(=O)[nH]c1=O (centres undefined)
TGI (CCRF-CEM leukemia): > 100 µM
TGI (COLO 205 colon): > 100 µM
TGI (RXF 393 renal): > 100 µM
TGI (SNB-19 CNS): > 100 µM
TGI (NCI/ADR-RES ovarian): > 100 µM
TGI (PC-3 prostate): > 100 µM
TGI (HCT-15 colon): > 100 µM
TGI (DU-145 prostate): > 100 µM
TGI (U251 CNS): > 100 µM

CC(=O)OC1CC2C(C)(C)OC(=O)CC(OC(C)=O)[C@]2(C)C2CCC3(C)C(=CCC3[C@H]3COC(=O)C3)[C@]12C (some centres undefined)
TGI (HL-60(TB) leukemia): > 100 µM
TGI (CCRF-CEM leukemia): 65.8 µM
TGI (COLO 205 colon): > 100 µM
TGI (NCI-H226 lung): > 100 µM
TGI (RXF 393 renal): > 100 µM
TGI (SNB-19 CNS): > 100 µM
TGI (SR leukemia): 78.1 µM
TGI (HCT-15 colon): > 100 µM
TGI (HT29 colon): > 100 µM
TGI (U251 CNS): > 100 µM

O=C1Nc2c(ccc(Cl)c2I)C1=O
TGI (HL-60(TB) leukemia): 48.1 µM
TGI (CCRF-CEM leukemia): 60.9 µM
TGI (COLO 205 colon): 30.8 µM
TGI (NCI-H226 lung): 46.4 µM
TGI (RXF 393 renal): 31.3 µM
TGI (SNB-19 CNS): > 100 µM
TGI (SR leukemia): 42.2 µM
TGI (HCT-15 colon): 38.6 µM
TGI (HT29 colon): > 100 µM
TGI (U251 CNS): 56.9 µM

O=C(NCCCCCCNCc1cccc2ccccc12)Nc1cccc2ccccc12
TGI (HL-60(TB) leukemia): > 100 µM
TGI (CCRF-CEM leukemia): > 100 µM
TGI (COLO 205 colon): > 100 µM
TGI (RXF 393 renal): > 100 µM
TGI (SNB-19 CNS): > 100 µM
TGI (NCI/ADR-RES ovarian): > 100 µM
TGI (PC-3 prostate): > 100 µM
TGI (HCT-15 colon): > 100 µM
TGI (HT29 colon): > 100 µM
TGI (DU-145 prostate): > 100 µM
TGI (U251 CNS): > 100 µM

CNC(=O)Oc1ccc(-c2cn3cc(OC(=O)NC)ccc3n2)cc1
TGI (CCRF-CEM leukemia): 52.9 µM
TGI (COLO 205 colon): > 100 µM
TGI (NCI-H226 lung): > 100 µM
TGI (RXF 393 renal): > 100 µM
TGI (SNB-19 CNS): > 100 µM
TGI (NCI/ADR-RES ovarian): > 100 µM
TGI (SR leukemia): > 100 µM
TGI (PC-3 prostate): > 100 µM
TGI (HCT-15 colon): > 100 µM
TGI (HT29 colon): > 100 µM
TGI (DU-145 prostate): > 100 µM
TGI (U251 CNS): > 100 µM

CCN1C(=O)C(=C/C=C/c2ccc([N+](=O)[O-])cc2)C(=O)N(CC)C1=S
TGI (HL-60(TB) leukemia): > 100 µM
TGI (CCRF-CEM leukemia): > 100 µM
TGI (COLO 205 colon): > 100 µM
TGI (NCI-H226 lung): > 100 µM
TGI (RXF 393 renal): 33.1 µM
TGI (SNB-19 CNS): > 100 µM
TGI (NCI/ADR-RES ovarian): 45.2 µM
TGI (PC-3 prostate): 34.6 µM
TGI (HCT-15 colon): > 100 µM
TGI (HT29 colon): 50.7 µM
TGI (DU-145 prostate): 33.3 µM
TGI (U251 CNS): 32.4 µM

O=C1CCCCC(=O)OC2(CCCCC2=O)CC1 (centres undefined)
TGI (CCRF-CEM leukemia): > 100 µM
TGI (COLO 205 colon): > 100 µM
TGI (NCI-H226 lung): > 100 µM
TGI (RXF 393 renal): > 100 µM
TGI (NCI/ADR-RES ovarian): > 100 µM
TGI (SR leukemia): > 100 µM
TGI (PC-3 prostate): > 100 µM
TGI (HCT-15 colon): > 100 µM
TGI (HT29 colon): > 100 µM
TGI (DU-145 prostate): > 100 µM
TGI (U251 CNS): > 100 µM

CC1Cn2c(nc3ccccc32)NC1=O (centres undefined)
TGI (HL-60(TB) leukemia): > 100 µM
TGI (CCRF-CEM leukemia): > 100 µM
TGI (COLO 205 colon): > 100 µM
TGI (NCI-H226 lung): > 100 µM
TGI (RXF 393 renal): > 100 µM
TGI (SNB-19 CNS): > 100 µM
TGI (NCI/ADR-RES ovarian): > 100 µM
TGI (SR leukemia): > 100 µM
TGI (PC-3 prostate): > 100 µM
TGI (HCT-15 colon): > 100 µM
TGI (HT29 colon): > 100 µM
TGI (U251 CNS): > 100 µM

O=C(O)CC[N+]1=CCC(c2ccccc2)(c2ccccc2)O1
TGI (COLO 205 colon): > 100 µM
TGI (NCI-H226 lung): > 100 µM
TGI (RXF 393 renal): > 100 µM
TGI (SNB-19 CNS): > 100 µM
TGI (PC-3 prostate): > 100 µM
TGI (HCT-15 colon): > 100 µM
TGI (HT29 colon): > 100 µM
TGI (DU-145 prostate): > 100 µM
TGI (U251 CNS): > 100 µM

OCC1OC(n2cnc3c(Cl)nc(Nc4ccccc4)nc32)CC1O (centres undefined)
TGI (CCRF-CEM leukemia): > 100 µM
TGI (COLO 205 colon): > 100 µM
TGI (NCI-H226 lung): > 100 µM
TGI (RXF 393 renal): > 100 µM
TGI (SNB-19 CNS): > 100 µM
TGI (NCI/ADR-RES ovarian): > 100 µM
TGI (PC-3 prostate): > 100 µM
TGI (HCT-15 colon): 60.8 µM
TGI (HT29 colon): > 100 µM
TGI (DU-145 prostate): > 100 µM
TGI (U251 CNS): > 100 µM

O=C(Cc1ccccc1)NN1C(=O)C(Cl)C1c1ccc(O)cc1 (centres undefined)
TGI (HL-60(TB) leukemia): > 100 µM
TGI (CCRF-CEM leukemia): > 100 µM
TGI (COLO 205 colon): > 100 µM
TGI (NCI-H226 lung): > 100 µM
TGI (RXF 393 renal): > 100 µM
TGI (SNB-19 CNS): > 100 µM
TGI (SR leukemia): > 100 µM
TGI (HCT-15 colon): > 100 µM
TGI (HT29 colon): > 100 µM
TGI (U251 CNS): > 100 µM

CC(C)C(=O)/C=C/c1ccc(Br)cc1
TGI (HL-60(TB) leukemia): 41.2 µM
TGI (CCRF-CEM leukemia): 21.5 µM
TGI (COLO 205 colon): 56.1 µM
TGI (RXF 393 renal): 36 µM
TGI (SNB-19 CNS): 29.8 µM
TGI (SR leukemia): 53.6 µM
TGI (HT29 colon): 31.6 µM
TGI (U251 CNS): 22.9 µM

O=c1[nH]/c(=C/c2ccc(OCc3ccccc3)cn2)c(=O)[nH]/c1=C/c1ccc(O)cc1
TGI (HL-60(TB) leukemia): 2.87 µM
TGI (CCRF-CEM leukemia): > 100 µM
TGI (COLO 205 colon): 10.3 µM
TGI (NCI-H226 lung): > 100 µM
TGI (RXF 393 renal): 7.38 µM
TGI (SNB-19 CNS): > 100 µM
TGI (NCI/ADR-RES ovarian): 2.09 µM
TGI (SR leukemia): 4.88 µM
TGI (PC-3 prostate): > 100 µM
TGI (HCT-15 colon): > 100 µM
TGI (HT29 colon): > 100 µM
TGI (U251 CNS): > 87.9 µM

CC1=COC(C)(C=C(C#N)C#N)CC1 (centres undefined)
TGI (HL-60(TB) leukemia): 50.1 µM
TGI (CCRF-CEM leukemia): > 100 µM
TGI (COLO 205 colon): > 100 µM
TGI (NCI-H226 lung): > 100 µM
TGI (RXF 393 renal): > 100 µM
TGI (SNB-19 CNS): > 100 µM
TGI (NCI/ADR-RES ovarian): > 100 µM
TGI (SR leukemia): > 100 µM
TGI (HT29 colon): > 100 µM
TGI (DU-145 prostate): > 100 µM
TGI (U251 CNS): > 100 µM

CCCCCCCCCCCCCCCCCC(=O)O[C@H](COC(=O)CCCCCCCCCCC)COC(=O)CCCCCCCCCCCCCCC
TGI (HL-60(TB) leukemia): > 100 µM
TGI (CCRF-CEM leukemia): > 100 µM
TGI (COLO 205 colon): > 100 µM
TGI (NCI-H226 lung): > 100 µM
TGI (SNB-19 CNS): > 100 µM
TGI (SR leukemia): > 100 µM
TGI (HCT-15 colon): > 100 µM
TGI (HT29 colon): > 100 µM
TGI (U251 CNS): > 100 µM

NC(=O)NNC(=O)c1nc[nH]c1[N+](=O)[O-]
TGI (CCRF-CEM leukemia): > 100 µM
TGI (COLO 205 colon): > 100 µM
TGI (NCI-H226 lung): > 100 µM
TGI (RXF 393 renal): > 100 µM
TGI (NCI/ADR-RES ovarian): > 100 µM
TGI (PC-3 prostate): > 100 µM
TGI (HCT-15 colon): > 100 µM
TGI (HT29 colon): > 100 µM
TGI (DU-145 prostate): > 100 µM
TGI (U251 CNS): > 100 µM

CC1=NN(c2ccc(S(=O)(=O)O)cc2)C2(C1)SCC(=O)N2c1nc2ccccc2s1 (centres undefined)
TGI (COLO 205 colon): > 100 µM
TGI (NCI-H226 lung): > 100 µM
TGI (RXF 393 renal): > 100 µM
TGI (SNB-19 CNS): > 100 µM
TGI (NCI/ADR-RES ovarian): > 100 µM
TGI (PC-3 prostate): > 100 µM
TGI (HCT-15 colon): > 100 µM
TGI (HT29 colon): > 100 µM
TGI (DU-145 prostate): > 100 µM
TGI (U251 CNS): > 100 µM

CC(=O)Nc1cc2c(s1)CCC1CC(=O)NN=C21 (centres undefined)
TGI (HL-60(TB) leukemia): > 100 µM
TGI (CCRF-CEM leukemia): > 100 µM
TGI (COLO 205 colon): > 100 µM
TGI (NCI-H226 lung): > 100 µM
TGI (RXF 393 renal): > 100 µM
TGI (SNB-19 CNS): > 100 µM
TGI (SR leukemia): > 100 µM
TGI (HCT-15 colon): > 100 µM
TGI (HT29 colon): > 100 µM
TGI (U251 CNS): > 100 µM

COC(=O)C1=C2SCc3cccc(c3)CSC3=C(C(=O)OC)SC(=C(S2)S1)S3
TGI (HL-60(TB) leukemia): 80.9 µM
TGI (CCRF-CEM leukemia): > 100 µM
TGI (COLO 205 colon): > 100 µM
TGI (NCI-H226 lung): > 100 µM
TGI (RXF 393 renal): > 100 µM
TGI (SNB-19 CNS): > 100 µM
TGI (PC-3 prostate): > 100 µM
TGI (DU-145 prostate): > 100 µM
TGI (U251 CNS): > 100 µM

CC(=O)N1N=C(c2ccc3ccccc3c2O)CC1C(=O)c1ccco1 (centres undefined)
TGI (CCRF-CEM leukemia): 24.9 µM
TGI (COLO 205 colon): 67.6 µM
TGI (NCI-H226 lung): > 100 µM
TGI (RXF 393 renal): > 100 µM
TGI (NCI/ADR-RES ovarian): 57.8 µM
TGI (SR leukemia): 18.6 µM
TGI (PC-3 prostate): > 100 µM
TGI (HCT-15 colon): > 100 µM
TGI (HT29 colon): > 100 µM
TGI (DU-145 prostate): > 100 µM
TGI (U251 CNS): > 100 µM
